What is called IC50 is the midpoint of a concentration-inhibition curve.

Assay [1] in a line: Antioxidant activity assessed as superoxide radical scavenging activity after 2 mins by NBT reduction assay. Type of assay: functional.
In a further assay the target is T1, Tyrosinase (Mus musculus, UniProt P11344).
T1 sequence (P11344 whole entry): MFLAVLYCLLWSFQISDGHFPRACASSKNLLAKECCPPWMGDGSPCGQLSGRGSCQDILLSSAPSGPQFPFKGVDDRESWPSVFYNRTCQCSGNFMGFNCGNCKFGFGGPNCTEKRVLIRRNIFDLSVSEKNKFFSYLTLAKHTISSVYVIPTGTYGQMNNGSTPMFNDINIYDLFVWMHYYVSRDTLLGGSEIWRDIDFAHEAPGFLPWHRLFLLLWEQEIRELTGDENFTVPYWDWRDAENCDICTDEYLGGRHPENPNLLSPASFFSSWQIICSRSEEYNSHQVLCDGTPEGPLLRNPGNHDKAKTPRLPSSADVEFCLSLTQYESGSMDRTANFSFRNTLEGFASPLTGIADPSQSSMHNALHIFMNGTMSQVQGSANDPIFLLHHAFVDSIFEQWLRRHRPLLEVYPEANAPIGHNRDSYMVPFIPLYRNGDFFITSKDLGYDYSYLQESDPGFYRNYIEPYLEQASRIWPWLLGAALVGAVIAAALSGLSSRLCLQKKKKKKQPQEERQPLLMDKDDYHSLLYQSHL
The assay can be described thus: Inhibition of tyrosinase in mouse Melan-a cells by ELISA. The assay is classed as cell-based. Background: ELISA stands for enzyme-linked immunosorbent assay.

A further assay has as its system Melan-a. The assay can be described thus: Inhibition of melanin formation in mouse Melan-a cells after 5 days by ELISA. To be noted: 120 h. Type of assay: functional, cell-based.

As to `O=C1O[C@H]([C@@H](O)CO)C(O)=C1O` [ASCORBIC ACID], the 50% inhibitory concentration (IC50) in assay [1] is 65.1 µM.
Turning to `O=c1c(-c2ccc(O)cc2)coc2c(O)c(O)ccc12`, the IC50 is 11.2 µM against Tyrosinase, 12.2 µM with Melan-a and 18.1 µM in assay [1].
Turning to `OC[C@H]1O[C@@H](Oc2ccc(O)cc2)[C@H](O)[C@@H](O)[C@@H]1O` [ARBUTIN], the midpoint of inhibition in the assay on Melan-a, the IC50, lay at 98 µM.
Consider `O=c1c(-c2ccc(O)cc2)coc2cc(O)c(O)cc12`, for which the IC50 (against Tyrosinase; in the assay on Melan-a; in assay [1]) was above 500 µM in each case.
Consider `O=c1c(-c2ccc(O)cc2)coc2cc(O)ccc12` [DAIDZEIN], for which the IC50 (at Tyrosinase; in the assay on Melan-a; in assay [1]) was above 500 µM throughout.
As for `O=c1c(-c2ccc(O)cc2)coc2cc(O)cc(O)c12` [GENISTEIN], the results for the IC50 (on Tyrosinase; in the assay with Melan-a; in assay [1]) were above 500 µM, 57.8 µM and 489 µM, respectively.
On the same counts, the results for `COc1cc2c(=O)c(-c3ccc(O)cc3)coc2cc1O` [GLYCITEIN] are above 500 µM, above 500 µM and above 500 µM.
As to `O=c1c(-c2ccc(O)c(O)c2)coc2cc(O)ccc12`, the IC50 came out at 5.23 µM on Tyrosinase, 7.83 µM in the assay on Melan-a and 10.5 µM in assay [1].

Values taken from ChEMBL document CHEMBL1157737, “Natural ortho-dihydroxyisoflavone derivatives from aged Korean fermented soybean paste as potent tyrosinase and melanin formation inhibitors” (Bioorg Med Chem Lett, 2010).
